Assay results taken from ChEMBL document CHEMBL3727356, “Therapeutic compounds and compositions” (2014).

Tests used:
Pyruvate kinase PKLR [1] = target: Pyruvate kinase PKLR (Homo sapiens, UniProt P30613, R510Q); assay: Activation of PKR R510Q mutant (unknown origin) incubated for 60 mins in presence of ADP, PEP and NADH by Spectraax microplate reader based assay
Pyruvate kinase PKLR [2] = target: Pyruvate kinase PKLR (Homo sapiens, UniProt P30613, R532W); assay: Activation of PKR R532W mutant (unknown origin) incubated for 60 mins in presence of ADP, PEP and NADH by Spectraax microplate reader based assay
Pyruvate kinase PKLR (Homo sapiens, UniProt P30613, R532W), sequence (P30613 whole entry R532W): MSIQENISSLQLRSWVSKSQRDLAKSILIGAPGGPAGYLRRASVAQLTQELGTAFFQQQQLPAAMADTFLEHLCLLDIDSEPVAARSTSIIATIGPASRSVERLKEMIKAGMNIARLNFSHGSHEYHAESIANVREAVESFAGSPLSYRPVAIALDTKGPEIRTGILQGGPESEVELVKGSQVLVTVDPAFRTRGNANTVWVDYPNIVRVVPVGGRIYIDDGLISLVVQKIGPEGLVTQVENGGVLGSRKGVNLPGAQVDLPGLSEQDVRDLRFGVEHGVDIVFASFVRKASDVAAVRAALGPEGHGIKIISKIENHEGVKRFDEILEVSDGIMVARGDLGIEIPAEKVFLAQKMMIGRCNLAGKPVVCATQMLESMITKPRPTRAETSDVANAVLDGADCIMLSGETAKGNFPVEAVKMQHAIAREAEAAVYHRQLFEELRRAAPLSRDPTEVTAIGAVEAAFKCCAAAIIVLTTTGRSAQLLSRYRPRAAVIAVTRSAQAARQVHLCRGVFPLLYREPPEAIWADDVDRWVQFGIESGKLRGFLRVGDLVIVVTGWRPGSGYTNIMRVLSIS

Pyruvate kinase PKLR [3] = target: T1, Pyruvate kinase PKLR (Homo sapiens, UniProt P30613); assay: Activation of wild type PKR (unknown origin) incubated for 60 mins in presence of ADP, PEP and NADH by Spectraax microplate reader based assay
T1 sequence (P30613 whole entry): as the sequence (P30613 whole entry R532W) above, with W532R counted along it

Pyruvate kinase PKLR [4] = target: T1, Pyruvate kinase PKLR; assay: Activation of wild type PKR (unknown origin) by cell based assay

Pyruvate kinase PKLR (Homo sapiens, UniProt P30613, R510Q), sequence (P30613 whole entry R510Q): as the sequence (P30613 whole entry R532W) above, with R510Q, W532R counted along it

| AC50 (Pyruvate kinase PKLR [1]) | AC50 (Pyruvate kinase PKLR [2]) | AC50 (Pyruvate kinase PKLR [3]) | AC50 (Pyruvate kinase PKLR [4]) | SMILES |
| --- | --- | --- | --- | --- |
| ≥ 1.01 µM | ≤ 1000 nM | ≤ 1000 nM |  | O=C(c1ccc(NS(=O)(=O)c2cccc3nccnc23)cc1)N1CCC(O)(c2ncc(Cl)s2)CC1 |
| > 10 µM | > 10000 nM |  |  | O=C(c1ccc(NS(=O)(=O)c2cccc3ccnnc23)cc1)N1CCC(O)(c2ccccc2Cl)CC1 |
| < 0.1 µM | < 100 nM | < 100 nM |  | CNc1nc2c(S(=O)(=O)Nc3ccc(C(=O)N4CCC(O)(c5ccccc5Cl)CC4)cc3)cccc2s1 |
| > 10 µM | > 10000 nM | > 10000 nM |  | O=C(c1ccc(NS(=O)(=O)Cc2ccccn2)cc1)N1CCC(O)(c2ccccc2Cl)CC1 |
| < 0.1 µM | < 100 nM | < 100 nM | < 100 nM | Cc1ccccc1C1(O)CCN(C(=O)c2ccc(NS(=O)(=O)c3cccc4cccnc34)cc2)CC1 |
| > 10 µM | ≥ 1010 nM | ≥ 1010 nM |  | O=C(c1ccc(NS(=O)(=O)c2cccc3c2OCC3)cc1)N1CCC(O)(c2ccccc2Cl)CC1 |
| > 10 µM | > 10000 nM | > 10000 nM |  | O=C(c1ccc(NS(=O)(=O)c2c[nH]c3cccnc23)cc1)N1CCC(O)(c2ccccc2Cl)CC1 |
| > 10 µM |  |  |  | O=C(c1ccc(NS(=O)(=O)c2cccc3scnc23)cc1)N1CCC(O)(c2cn[nH]c2)CC1 |
| < 0.1 µM | < 100 nM | < 100 nM | < 100 nM | Cc1cc(C(=O)N2CCC(O)(c3ccccc3Cl)CC2)ccc1NS(=O)(=O)c1cccc2cccnc12 |
| > 10 µM | > 10000 nM | > 10000 nM |  | Cn1ccc(C2(O)CCN(C(=O)c3ccc(NS(=O)(=O)c4cccc5scnc45)cc3)CC2)n1 |
| > 10 µM | > 10000 nM | > 10000 nM |  | O=C(c1ccc(NS(=O)(=O)n2ccc3cccnc32)cc1)N1CCC(O)(c2ccccc2Cl)CC1 |

More lines, now with the values behind:

| SMILES | AC50 (Pyruvate kinase PKLR [1]) | AC50 (Pyruvate kinase PKLR [2]) | AC50 (Pyruvate kinase PKLR [3]) | AC50 (Pyruvate kinase PKLR [4]) |
| --- | --- | --- | --- | --- |
| CC(F)(F)CCC1(O)CCN(C(=O)c2ccc(NS(=O)(=O)c3cc(F)cc4sc(N)nc34)cc2)CC1 | < 0.1 µM | < 100 nM | < 100 nM |  |
| CC(C)CC1(O)CCN(C(=O)c2ccc(NS(=O)(=O)c3c(F)ccc4ncsc34)cc2)CC1 | > 10 µM |  |  |  |
| CCS(=O)(=O)CC1(O)CCN(C(=O)c2ccc(NS(=O)(=O)c3cccc4nccnc34)cc2)CC1 | > 10 µM | ≥ 1010 nM | ≥ 1010 nM |  |
| CS(=O)(=O)CCC1(O)CCN(C(=O)c2ccc(NS(=O)(=O)c3cccc4scnc34)cc2)CC1 | > 10 µM | > 10000 nM |  |  |
| CS(=O)(=O)CCC1(O)CCN(C(=O)c2ccc(NS(=O)(=O)c3cccc4nccnc34)cc2)CC1 | > 10 µM |  |  |  |
| O=C1NCCC1CC1(O)CCN(C(=O)c2ccc(NS(=O)(=O)c3cccc4nccnc34)cc2)CC1 (configuration not stated) | > 10 µM |  |  |  |
| CC(C)CC1(O)CCN(C(=O)c2ccc(NS(=O)(=O)c3cccc4c3OCC4)cc2)CC1 | ≥ 1.01 µM | ≥ 1010 nM | ≥ 1010 nM |  |
| CN1CCC(CC2(O)CCN(C(=O)c3ccc(NS(=O)(=O)c4cccc5scnc45)cc3)CC2)C1=O (configuration not stated) | > 10 µM |  |  |  |
| Nc1nc2c(S(=O)(=O)Nc3ccc(C(=O)N4CCC(O)(/C=C/CC(F)(F)F)CC4)cc3)cccc2s1 | < 0.1 µM |  | < 100 nM | < 100 nM |
| CC1(CC2(O)CCN(C(=O)c3ccc(NS(=O)(=O)c4cccc5scnc45)cc3)CC2)CC1 | < 0.1 µM | < 100 nM | < 100 nM |  |
| O=C(c1ccc(NS(=O)(=O)c2cccc3nccnc23)cc1)N1CCC(O)(Cc2ccccc2C(F)(F)F)CC1 | < 0.1 µM | < 100 nM | < 100 nM | < 100 nM |
| COc1cc(NS(=O)(=O)c2cccc3cccnc23)ccc1C(=O)N1CCC(O)(Cc2ccccc2)CC1 | < 0.1 µM | < 100 nM | < 100 nM |  |
| CC(C)CC1(O)CCN(C(=O)c2ccc(NS(=O)(=O)c3cccc4ncc(O)nc34)cc2)CC1 | > 10 µM | > 10000 nM | > 10000 nM |  |
| CCS(=O)(=O)CC1(O)CCN(C(=O)c2ccc(NS(=O)(=O)c3cccc4scnc34)cc2)CC1 | > 10 µM |  |  |  |
| O=C(c1ccc(NS(=O)(=O)c2cccc3cccnc23)cc1)N1CCC(O)(Cc2ccccc2F)CC1 | < 0.1 µM | < 100 nM | < 100 nM | < 100 nM |
| O=C(c1ccc(N[S+]([O-])c2cccc3cccnc23)cc1)N1CCC(O)(c2ccccc2Cl)CC1 (configuration not stated) | > 10 µM |  |  |  |
| CC(C)CC1(O)CCN(C(=O)c2ccc(NS(=O)(=O)c3cccc4[nH]cnc34)cc2)CC1 | > 10 µM | > 10000 nM | > 10000 nM |  |
| Nc1nc(CC2(O)CCN(C(=O)c3ccc(NS(=O)(=O)c4cccc5scnc45)cc3)CC2)cs1 | > 10 µM |  |  |  |
| COc1ccccc1CC1(O)CCN(C(=O)c2ccc(NS(=O)(=O)c3cccc4cccnc34)cc2)CC1 | < 0.1 µM | < 100 nM | < 100 nM | < 100 nM |
| O=C(c1ccc(NS(=O)(=O)c2cccc3cccnc23)cc1)N1CCC(O)(Cc2ccccc2C(F)(F)F)CC1 | < 0.1 µM | < 100 nM | < 100 nM | < 100 nM |
| CC(C)CC1(O)CCN(C(=O)c2ccc(NS(=O)(=O)c3cccn4ccnc34)cc2)CC1 | > 10 µM |  |  |  |
